Measured values published in the supplement of paper PMC4862054.

Key:
Experiment in all cases: normalised response (% of control), CellTox Green; higher = less cell death (100 = DMSO, 0 = benzethonium chloride kill control)
Details in all cases: incubation time: 72 h
[1] = system: CAL-148
Procedure, shortened: (§1)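 Breast cancer cell lines, seeded at 20 µl suspension per well, were incubated for 72 h in 384-well plates containing compound at 5 concentrations. These concentrations rose in 10-fold steps over a 10,000-fold range set for each compound. CellTox Green fluorescence (485/520 nm) was read, then CellTiter-Glo luminescence after 10 min at room temperature, and each plate was normalised to 0.1 % DMSO (100) and a positive kill control (0). Values are normalised signals, each at one concentration.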

[2] = system: MDA-MB-436
Procedure, shortened: as §1

[3] = system: Hs578T
Procedure, shortened: as §1

[4] = system: BT-474
Procedure, shortened: as §1

[5] = system: HCC1599
Procedure, shortened: as §1

[6] = system: CAL-120
Procedure, shortened: as §1

[7] = system: HDQ-P1
Procedure, shortened: as §1

[8] = system: CAL-85-1
Procedure, shortened: as §1

[9] = system: MDA-MB-231
Procedure, shortened: as §1

[10] = system: HCC1937
Procedure, shortened: as §1

[11] = system: BT-549
Procedure, shortened: as §1

[12] = system: CAL-51
Procedure, shortened: as §1

[13] = system: HCC1143
Procedure, shortened: as §1

[14] = system: MDA-MB-468
Procedure, shortened: as §1

[15] = system: MCF-10A
Procedure, shortened: as §1

[16] = system: DU-4475
Procedure, shortened: as §1

[17] = system: MFM-223
Procedure, shortened: as §1

[18] = system: MDA-MB-453
Procedure, shortened: as §1

Structure (SMILES)	normalised response [1] [%]	normalised response [2] [%]	normalised response [3] [%]	normalised response [4] [%]	normalised response [5] [%]	normalised response [6] [%]	normalised response [7] [%]	normalised response [8] [%]	normalised response [9] [%]	normalised response [10] [%]	normalised response [11] [%]	normalised response [12] [%]	normalised response [13] [%]	normalised response [14] [%]	normalised response [15] [%]	normalised response [16] [%]	normalised response [17] [%]	normalised response [18] [%]
Cn1cc(C2=Nc3cc(NC(=O)C(N)C4CCCCC4)cc4c3C2=CNNC4=O)cn1 (stereo unspecified) (1000 nM)	86.4	85	-123	92.3	73.3	80.1	97.4	45.8	54.1	113	95.4	56	4.8	126	-64.4	95.2	87.6	91.8
Cn1cc(C2=Nc3cc(NC(=O)C(N)C4CCCCC4)cc4c3C2=CNNC4=O)cn1 (stereo unspecified) (10000 nM)	58.5	92.7	84.6	97.1	82.4	89.9	-67.6	59.8	54.2	95.9	39.3	-9.5	115	13.5	31.3	83.1	10.9	41.1
COc1cc2c(cc1O)CC[C@@H]1[C@@H]2CC[C@]2(C)[C@@H](O)CC[C@@H]12 [2-methoxyestradiol] (1000 nM)	85.8	85.5	84.6	77.8	93.5	91.8	108	83.5	34.1	111	96.5	98.3	99.8	92.5	98.5	96.6	64.7	108
COc1cc2c(cc1O)CC[C@@H]1[C@@H]2CC[C@]2(C)[C@@H](O)CC[C@@H]12 [2-methoxyestradiol] (10000 nM)	78.8	81.1	-39.2	70.9	89	78.8	94.4	51.6	-158	90	85.8	8.99	106	77.4	48.3	97.4	52.5	94.9
Cc1sc2c(c1C)C(c1ccc(Cl)cc1)=N[C@@H](CC(=O)OC(C)(C)C)c1nnc(C)n1-2 [(+)JQ1] (1000 nM)	67.3	66.8	98.9	94.4	95.5	87.5	83.5	64.5	131	59.3	97.4	90.6	-3.05	85.6	108	88.2	98.1	104
Cc1sc2c(c1C)C(c1ccc(Cl)cc1)=N[C@@H](CC(=O)OC(C)(C)C)c1nnc(C)n1-2 [(+)JQ1] (10000 nM)	50.8	72.9	100	92.8	87.9	91.3	87.6	24	62.5	68.2	66.8	14.5	123	-39.7	101	81.4	97.8	102
Oc1ncnc2[nH]ncc12 [Allopurinol] (1000 nM)	106	107	101	100	97	95	106	99		89.9	103	118		80.5	94.7	96.8	103	63
Oc1ncnc2[nH]ncc12 [Allopurinol] (10000 nM)	98	99.7	70.8	104	102	101	108	83.4	108	76	89.5	116	117	79	102	98.6	94.1	75.7
O=C1CN2Cc3c(ccc(Cl)c3Cl)N=C2N1 [Anagrelide] (1000 nM)	56.1	87.3	83.8	97	94.3	97.8		103	86.2	88.6	97	59.7		137	104	97.4	102	105
O=C1CN2Cc3c(ccc(Cl)c3Cl)N=C2N1 [Anagrelide] (10000 nM)	60.6	94.9	100	101	99	98.9	78.9	108	94.7	106	89.6	54.9	85.1	67	53.2	96.3	69.6	100
Nc1ncn([C@@H]2O[C@H](CO)[C@@H](O)[C@H]2O)c(=O)n1 [Azacitidine] (1000 nM)	84.3	97.7		80.4	96.4	101	59.9	98.4	93.2		108	105		33.9	101	97	89.6	110
